This is an account of results in patent US20230330251A1, “METHODS FOR TREATING CANCERS WITH ANTIBODY DRUG CONJUGATES (ADC) THAT BIND TO 191P4D12 PROTEINS” (AGENSYS, INC., priority 2020, published 2023).

Common to all, as to assay type: in vivo, human
Data set [1] has as its system subjects with previously treated locally advanced or metastatic urothelial cancer. Nature of the data set: EV-301: progression free survival (PFS1) per RECIST V1.1, investigator assessment. The text has this: For each subject, PFS1 is defined as the time from the date of randomization until the date of radiological disease progression (per RECIST V1.1), or until death due to any cause. If a subject has neither progressed nor died, the subject was censored at the date of last radiological assessment. Subjects who receive any further anticancer therapy for the disease before radiological progression were censored at the date of the last radiological assessment before the anticancer therapy started.
The efficacy endpoint of PFS1 was analyzed using the log-rank test stratified by ECOG PS (0 vs 1), regions of the world (Western EU, US or the rest of world) and liver metastasis (yes or no). Randomized treatment and the strata used for randomization was used for the analysis. In addition, stratified Cox proportional hazard model was used to estimate the hazard ratio and the corresponding 95% confidence interval. The median PFS1 was estimated using the Kaplan-Meier method and reported along with the corresponding 95% confidence interval by treatment arm.
The primary analysis was performed using the FAS. Additional sensitivity analyses for PFS1 was also be performed. Details are specified in the SAP.

Data set [2] shares this test system. Description: EV-301: overall response rate, complete/partial response, disease control rate per RECIST V1.1 (response evaluable set). The text has this:
Subjects will be evaluated for response according to the RECIST V1.1. Imaging for both arms will be performed at baseline and every 56 days (±7 days) from the first dose of study treatment throughout the study until PFS1 is documented by radiological disease progression or the subject is lost to follow-up, death, withdraws study consent or starts a subsequent anti-cancer therapy.
CR is defined as disappearance of all target and nontarget lesions. Any pathological lymph nodes (whether target or nontarget) must have reduction in short axis to <10 mm from baseline measurement.
PR is defined as at least a 30% decrease in the sum of diameters (longest for nonnodal lesions, short axis for nodal lesions) of target lesions taking as reference to the baseline sum of diameters.
SD is defined as neither sufficient decrease to qualify for PR nor sufficient increase to qualify for progressive disease taking as reference the smallest sum of diameters while on study drug.
PD is defined as at least a 20% increase in the sum of diameters (longest for nonnodal lesions, short axis for nodal lesions) of the target lesions taking as reference the smallest sum on study (this includes the baseline sum if that is the smallest on study). […] The appearance of 1 or more new lesions is also considered progression.
The response evaluable set (RES) is defined as all subjects in FAS and with measurable disease at baseline and had at least 6 months follow up since randomization. RES will be used for primary efficacy analysis of response related endpoints, e.g., ORR and DCR.
The overall response rate (ORR) is defined as the proportion of subjects with complete or partial objective response based on the RECIST V1.1. The comparison of ORR between Arm A and Arm B was performed using a stratified CMH test. Same stratification factors used in time to event analyses will be used for the stratified CMH test. […] In addition, ORR for each arm was estimated and corresponding 95% confidence interval will be constructed. The primary analysis was performed using the RES.
The DCR is defined as the proportion of subjects with a complete or partial objective response or a stable disease based on RECIST V1.1. The comparison of DCR between Arm A and Arm B was performed using a stratified CMH test. Same stratification factors used in time to event analyses were used for the stratified CMH test. […] In addition, DCR for each arm was estimated and corresponding 95% confidence interval will be constructed. The primary analysis was performed using the RES.

Data set [3] can be described thus: Phase 1 study of EV: pharmacokinetics. The source says:
Based on pharmacokinetic data from the phase 1 study, the half-life of EV is ˜1-2 days. […] Minimal (<50%) intra-cycle accumulation of MMAE was observed. It is anticipated that the dosing schedule in the study will maintain ADC exposures over each 28-day cycle, contributing to a favorable balance of activity and safety, as observed in the phase 1 trial.

The mark [4] stands for this setting: All, Response-Evaluable Population.

With enfortumab vedotin, in data set [1] (All), the “Median PFS” value stood at 5.55 mo; the “PFS, EV vs SC HR” value came to 0.615; the “Progression-free survival (PFS) Events, %” value is listed as “(66.8) %”; the “Progression-free survival (PFS) Events, n/N” value was 201/301. In data set [1] (FAS, investigator assessment), the “Median PFS” value worked out at 5.55 Months and the “PFS Events, %” value is listed as “(66.8%)”. Moreover, in data set [1] (PADCEV vs chemotherapy), the “reduction in risk of disease progression or death” value was determined as 39%. Moreover, in data set [2] (setting [4]), the “ORR, EV vs SC Absolute Difference” value was determined as 22.7%; the “Overall response rate (ORR), %” value was 40.6%; the “Overall response rate (ORR), n/N” value was 117/288. In data set [2] (RECIST v1.1, RES), the “Best overall response: Complete response, %” value was “(4.9) %”; the “Best overall response: Not evaluable, %” value is “(12.8) %”; the “Best overall response: Partial response, %” value is on record as “(35.8) %”; the “Best overall response: Progressive disease, %” value was “(15.3) %”. In data set [2] (RECIST v1.1, RES), the “Best overall response: Stable disease, %” value is given as “(31.3) %”. For the same substance, the “Time to response, Median” value in data set [2] (RES) stood at 1.87 months. Also, in data set [2] (RES, investigator assessment, N = 288 EV, 296 chemotherapy), the “Overall Response Rate (ORR), Confirmed, %” value is “(40.6%)”. The “Disease control rate, Patients, %” value in data set [2] (RES, N = 288 EV, 296 chemotherapy) is recorded as “(71.9%)”. Also, the “complete response, number of patients” value in data set [2] (of 288 (enfortumab vedotin) / of 296 (chemotherapy)) is given as 14. For the same substance, in data set [2] (response-evaluable population), the Disease control worked out at 71.9% and the “complete response, % of the patients” value was determined as 4.9%. For the same substance, the “intra-cycle accumulation of ADC” value in data set [3] (dosing on Days 1, 8 and 15 of every 28-day cycle, any dose level) is below 30%. The substance further displayed a half-life in data set [3] (phase 1 study) of 24 to 48 h.
